# Active and inactive are the calls of the source.
# Legend:
# [1] = cytotoxicity in HeLa cells, dose response, cytotoxicity control, cell-based, plate reader, dry powder (AID 651946); type: functional
# [2] = molecular target: Metabotropic glutamate receptor 5 (Rattus norvegicus, UniProt P31424); assay: Identification of a glycine sulfonamide based non-MPEP site positive allosteric potentiator (PAM) of mGlu5 (calcium_assay).; type: functional
# Streptococcus = assay: Group A Streptococcus viability loss, dose response, counter-screen for streptokinase expression inhibitor project, luminescence, BacTiterGlo (AID 1915); type: functional, organism-based;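 note: potency for reduction of bacterial viability or growth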
# [3] = molecular target: T1, Corticotropin-releasing factor receptor 2/Corticotropin-releasing factor-binding protein (Homo sapiens, UniProt P24387+Q13324); assay: activators of CRF receptor 2 with binding protein – uHTS hits, confirmation (AID 602473); type: functional; settings: read-out: EC50_Mean
# T1 sequence (Q13324 whole entry): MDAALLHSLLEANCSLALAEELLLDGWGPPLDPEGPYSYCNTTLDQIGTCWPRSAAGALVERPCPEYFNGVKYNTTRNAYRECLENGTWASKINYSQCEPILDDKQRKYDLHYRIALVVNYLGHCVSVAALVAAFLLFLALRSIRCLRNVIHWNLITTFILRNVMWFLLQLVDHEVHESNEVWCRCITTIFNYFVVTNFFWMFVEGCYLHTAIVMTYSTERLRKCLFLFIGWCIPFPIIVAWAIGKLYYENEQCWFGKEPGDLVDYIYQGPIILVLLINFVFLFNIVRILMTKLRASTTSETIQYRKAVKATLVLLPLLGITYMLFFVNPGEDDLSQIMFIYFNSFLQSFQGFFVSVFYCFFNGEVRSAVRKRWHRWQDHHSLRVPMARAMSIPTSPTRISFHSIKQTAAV
# T1 sequence (P24387 whole entry): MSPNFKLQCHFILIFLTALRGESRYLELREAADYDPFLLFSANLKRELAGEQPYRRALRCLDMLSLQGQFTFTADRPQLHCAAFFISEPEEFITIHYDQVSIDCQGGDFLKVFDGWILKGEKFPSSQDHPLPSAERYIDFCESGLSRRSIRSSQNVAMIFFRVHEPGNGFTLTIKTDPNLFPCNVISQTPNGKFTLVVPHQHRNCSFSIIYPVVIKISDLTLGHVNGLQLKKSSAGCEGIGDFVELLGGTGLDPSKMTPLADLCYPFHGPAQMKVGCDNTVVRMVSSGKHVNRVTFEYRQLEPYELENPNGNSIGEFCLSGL
# [4] = test system: Streptococcus sp. 'group A'; assay: growth inhibition of control SK(-) GAS strain, dose response, counter-screen for streptokinase expression inhibitor project, luminescence, kanamycin, BacTiterGlo, confirmation (AID 1900); type: functional, organism-based
# [5] = human group III sPLA2 inhibitors, dose response, biochemical, QFRET, IC50 (AID 743457);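 note: green fluorescence rise as the enzyme cleaves BODIPY PC-A2 in liposomes; potency for inhibition of the enzyme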
# Vero [6] = assay: cells; type: functional, cell-based; settings: Chlorocebus sabaeus
# Vero [7] = assay: cells; type: functional; settings: Chlorocebus sabaeus
# cells [8] = settings: HEK293;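 note: cells exposed to compound for 48 hours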
# [9] = Luminescence Cell-Based Dose Confirmation HTS to Identify Activators of 5'UTR Stem-Loop Driven Alpha-Synuclein mRNA Translation in H4 Neuroglioblastoma Cells. [Related pubchem assays: 1829 (Project Summary), 1814 (Primary HTS)]; type: functional
# [10] = Luminescence Cell-Based Dose Response HTS to Identify Activators of Luciferase Translation or Activity in H4 […] Cells. [Related pubchem assays: 1829 (Project Summary), 1814 (Primary HTS)]; type: functional
# H4 = assay: Luminescence Cell-Based Dose Response HTS to Identify Activators of 5'UTR Stem-Loop Driven Prion Protein mRNA Translation in H4 Neuroglioblastoma Cells. [Related pubchem assays: 1829 (Project Summary), 1814 (Primary HTS)]; type: functional; settings: Homo sapiens
# cells [11] = assay: cells
# [12] = molecular target: Nuclear receptor subfamily 5 group A member 2 (Homo sapiens, UniProt O00482); type: functional, cell-based;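 note: HEK293T cells transfected with LRH-1 and a StAR promoter luciferase reporter; potency for inhibitors that lower LRH-1 driven reporter light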
# [13] = AlphaScreen signal interference by compounds, dose response, artefact control for ARNT/TACC3 disruptor project, biochemical, dual-tagged ARNT, dry powder (AID 720564)
# Steroidogenic factor 1 = Steroidogenic factor 1 (Homo sapiens, UniProt Q13285); assay: Counterscreen for inverse agonists of the liver receptor homolog-1 (LRH-1; NR5A2): Luminescence-based cell-based high throughput dose response assay to identify inverse agonists of the Steroidogenic Factor 1 Nuclear Receptor (SF1; NR5A1).; type: functional
# [14] = StAR promoter reporter inhibition counter-screen, dose response, counter-screen for LRH-1 inverse agonist project, cell-based, luminescence, luciferase reporter (AID 651969); type: functional
# [15] = molecular target: Potassium channel subfamily K member 3 (Homo sapiens, UniProt O14649); assay: TASK1 (KCNK3) potassium channel inhibitors, SAR follow-up, CHO cells, FluxOR thallium flux (AID 652212); type: functional
# [16] = molecular target: Voltage-gated inwardly rectifying potassium channel KCNH2 (Homo sapiens, UniProt Q12809); assay: hERG channel inhibition in selectivity testing, SAR follow-up, selectivity assay for TASK1 inhibitor project, FluxOR thallium flux, concentration-response, CHO cells (AID 652194); type: functional, cell-based
# [17] = molecular target: T2, High affinity choline transporter 1 (Homo sapiens, UniProt Q9GZV3); assay: CHT choline uptake inhibitors, dose response, cell-based, HEK-293 hCHT, [3H]-choline uptake (AID 652177); type: functional
# T2 sequence (Q9GZV3 whole entry): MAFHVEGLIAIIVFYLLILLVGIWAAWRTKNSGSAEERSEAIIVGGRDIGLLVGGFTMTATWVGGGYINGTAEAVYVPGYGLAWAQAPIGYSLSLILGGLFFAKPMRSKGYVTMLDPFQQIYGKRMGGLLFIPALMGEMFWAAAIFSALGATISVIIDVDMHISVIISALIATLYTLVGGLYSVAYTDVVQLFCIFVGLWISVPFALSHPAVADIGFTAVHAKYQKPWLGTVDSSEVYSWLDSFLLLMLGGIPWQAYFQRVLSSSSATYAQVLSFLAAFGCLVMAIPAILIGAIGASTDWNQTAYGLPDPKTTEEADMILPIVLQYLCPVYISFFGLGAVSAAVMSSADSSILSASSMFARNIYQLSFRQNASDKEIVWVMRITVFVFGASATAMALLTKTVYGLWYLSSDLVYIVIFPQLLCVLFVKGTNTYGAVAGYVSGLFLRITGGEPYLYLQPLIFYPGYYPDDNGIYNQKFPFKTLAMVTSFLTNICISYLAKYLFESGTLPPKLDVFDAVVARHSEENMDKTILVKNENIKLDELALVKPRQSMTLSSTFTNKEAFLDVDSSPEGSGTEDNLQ
# [18] = molecular target: T3, Oxysterols receptor LXR-beta (Homo sapiens, UniProt P55055); type: functional, cell-based;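 note: Cell-based luminescence dose-response assay of agonist activity at LXR, run as a confirmatory counterscreen to a daf-12 agonist screen; HEK293 cells with Gal4-LXR fusion and GAL4-driven luciferase reporter; agonist potency from rising luciferase signal of a Gal4-LXR reporter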
# T3 sequence (P55055 whole entry): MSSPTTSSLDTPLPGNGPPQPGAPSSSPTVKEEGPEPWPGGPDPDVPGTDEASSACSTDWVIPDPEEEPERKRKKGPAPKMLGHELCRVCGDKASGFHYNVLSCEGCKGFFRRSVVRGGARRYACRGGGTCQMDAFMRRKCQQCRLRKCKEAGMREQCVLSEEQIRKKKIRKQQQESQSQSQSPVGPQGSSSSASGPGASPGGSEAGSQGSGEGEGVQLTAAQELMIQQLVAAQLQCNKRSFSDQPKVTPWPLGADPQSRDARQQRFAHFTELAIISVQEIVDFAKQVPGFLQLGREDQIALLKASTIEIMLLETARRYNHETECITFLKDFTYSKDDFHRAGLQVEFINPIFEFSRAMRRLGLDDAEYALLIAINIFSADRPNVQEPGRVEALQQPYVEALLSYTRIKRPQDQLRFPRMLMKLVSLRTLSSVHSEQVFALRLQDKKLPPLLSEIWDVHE
# cells [19] = assay: cells; remark: listed apart in the source
# [20] = IRAP inhibitors, dose response, selectivity assay for ERAP1 modulator project, biochemical, Leu-AMC fluorescence, cherry-picked samples, set 2 (AID 743340)
# [21] = molecular target: T4, Methionyl-tRNA synthetase, putative (Trypanosoma brucei brucei, UniProt Q38C91); type: functional, Trypanosoma brucei brucei strain 927/4 GUTat10.1
# [22] = Counterscreen for inhibitors of Trypanosoma brucei methionyl tRNA synthetase (MetRS): Luminescence-based cell-based high throughput dose response assay to identify compounds that are cytotoxic to Jurkat human T lymphocyte cells.; type: functional
# [23] = molecular target: T4, Methionyl-tRNA synthetase, putative; type: functional, Trypanosoma brucei brucei strain 927/4 GUTat10.1; remark: listed apart in the source
# [24] = Late stage counterscreen for inhibitors of Trypanosoma brucei methionyl tRNA synthetase (MetRS): Luminescence-based cell-based high throughput dose response assay to identify compounds that are cytotoxic to Jurkat human T lymphocyte cells.; type: functional
# [25] = Keap1 Kelch-Nrf2 peptide binding inhibitors, dose response, biochemical, fluorescence polarization, dry powder, set 3 (AID 651806)
# [26] = HEK293T cell cytotoxicity, dose response, cytotoxicity control, luminescence plate reader, powder samples, set 4 (AID 651863); type: functional, cell-based; settings: HEK293
# [27] = inhibitors of HRE-driven luciferase expression, dose response, ARNT-TACC3 inhibitor project, HeLa cells, luminescence, dry powder samples, 2158-08 (AID 720560); type: functional, cell-based
# [28] = HIF luciferase reporter inhibitors, dose response, ARNT-TACC3 inhibitor project, cell-based, dry powder samples, luminescence, 2158-07 (AID 720561); type: functional
# [29] = HEK293 Cytotoxicity Assay Measured in Cell-Based System Using Plate Reader - 7071-01_Inhibitor_Dose_CherryPick_Activity_Set2.; type: functional
# HEK293 = assay: HEK293T cell cytotoxicity, dose response, cytotoxicity control, ATP luminescence, cherry-pick samples (AID 687005); type: functional, cell-based; settings: Homo sapiens;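 note: cells exposed to compound for 48 hours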
# HeLa = assay: HeLa cell cytotoxicity, dose response, cytotoxicity control, ATP luminescence, cherry-pick samples (AID 687004); type: functional, cell-based; settings: Homo sapiens
# Streptokinase A = molecular target: T5, Streptokinase A (Streptococcus pyogenes serotype M1, UniProt P10520); assay: S. pyogenes streptokinase expression inhibitors, potency, dose response, plasminogen activation absorbance, OD405 (AID 1914); type: functional, Streptococcus pyogenes M1 GAS;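 note: secreted streptokinase activity via plasminogen activation per viability signal from cell pellet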
# T5 sequence (P10520 whole entry): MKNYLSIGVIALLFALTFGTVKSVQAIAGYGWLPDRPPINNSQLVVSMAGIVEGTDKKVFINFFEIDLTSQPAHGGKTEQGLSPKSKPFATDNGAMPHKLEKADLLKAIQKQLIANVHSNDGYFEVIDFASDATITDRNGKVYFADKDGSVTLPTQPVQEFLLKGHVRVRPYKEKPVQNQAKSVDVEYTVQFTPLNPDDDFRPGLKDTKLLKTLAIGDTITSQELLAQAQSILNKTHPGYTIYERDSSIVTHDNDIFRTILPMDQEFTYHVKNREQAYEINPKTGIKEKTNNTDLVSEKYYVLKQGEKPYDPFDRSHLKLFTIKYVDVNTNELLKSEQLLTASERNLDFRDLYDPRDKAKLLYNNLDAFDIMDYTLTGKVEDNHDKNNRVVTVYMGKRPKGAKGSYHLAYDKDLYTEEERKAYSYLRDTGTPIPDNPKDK
# Caspase-6 = Caspase-6 (Homo sapiens, UniProt P55212); assay: human caspase-6 inhibitors, dose response, biochemical, VEID-R110 fluorescence, cherry-pick (AID 720632)
# Chain of Caspase-6 (P55212 24-179 limits assumed): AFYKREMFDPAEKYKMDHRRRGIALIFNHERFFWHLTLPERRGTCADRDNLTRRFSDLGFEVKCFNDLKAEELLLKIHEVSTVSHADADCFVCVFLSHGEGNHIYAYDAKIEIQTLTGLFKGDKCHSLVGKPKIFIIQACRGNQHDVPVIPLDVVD
# Chain of Caspase-6 (P55212 194-293 limits assumed): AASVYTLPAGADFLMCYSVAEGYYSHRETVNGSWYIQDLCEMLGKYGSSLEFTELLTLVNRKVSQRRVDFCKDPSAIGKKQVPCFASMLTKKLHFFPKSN
# T4 sequence (Q38C91 whole entry): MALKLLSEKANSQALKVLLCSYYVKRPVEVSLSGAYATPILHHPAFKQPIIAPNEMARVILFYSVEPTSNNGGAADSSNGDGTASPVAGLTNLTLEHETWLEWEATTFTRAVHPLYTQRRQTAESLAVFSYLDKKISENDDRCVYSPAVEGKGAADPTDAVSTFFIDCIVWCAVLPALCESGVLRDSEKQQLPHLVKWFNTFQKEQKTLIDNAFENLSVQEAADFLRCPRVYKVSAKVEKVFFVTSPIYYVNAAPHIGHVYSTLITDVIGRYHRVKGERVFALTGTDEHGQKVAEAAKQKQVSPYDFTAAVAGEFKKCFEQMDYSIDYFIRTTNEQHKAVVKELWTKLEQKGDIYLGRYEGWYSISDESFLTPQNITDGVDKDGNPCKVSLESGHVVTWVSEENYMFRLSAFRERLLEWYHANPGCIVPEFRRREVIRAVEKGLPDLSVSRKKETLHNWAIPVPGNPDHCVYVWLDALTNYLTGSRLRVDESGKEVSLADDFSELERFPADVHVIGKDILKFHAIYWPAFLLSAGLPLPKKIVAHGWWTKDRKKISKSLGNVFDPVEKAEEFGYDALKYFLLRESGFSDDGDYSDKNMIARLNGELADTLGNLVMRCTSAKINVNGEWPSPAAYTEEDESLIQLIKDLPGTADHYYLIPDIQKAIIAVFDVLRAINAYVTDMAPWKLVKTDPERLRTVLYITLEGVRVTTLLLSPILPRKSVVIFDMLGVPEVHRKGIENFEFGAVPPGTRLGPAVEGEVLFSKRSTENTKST
# Chain of Voltage-gated inwardly rectifying potassium channel KCNH2 (Q12809 whole entry): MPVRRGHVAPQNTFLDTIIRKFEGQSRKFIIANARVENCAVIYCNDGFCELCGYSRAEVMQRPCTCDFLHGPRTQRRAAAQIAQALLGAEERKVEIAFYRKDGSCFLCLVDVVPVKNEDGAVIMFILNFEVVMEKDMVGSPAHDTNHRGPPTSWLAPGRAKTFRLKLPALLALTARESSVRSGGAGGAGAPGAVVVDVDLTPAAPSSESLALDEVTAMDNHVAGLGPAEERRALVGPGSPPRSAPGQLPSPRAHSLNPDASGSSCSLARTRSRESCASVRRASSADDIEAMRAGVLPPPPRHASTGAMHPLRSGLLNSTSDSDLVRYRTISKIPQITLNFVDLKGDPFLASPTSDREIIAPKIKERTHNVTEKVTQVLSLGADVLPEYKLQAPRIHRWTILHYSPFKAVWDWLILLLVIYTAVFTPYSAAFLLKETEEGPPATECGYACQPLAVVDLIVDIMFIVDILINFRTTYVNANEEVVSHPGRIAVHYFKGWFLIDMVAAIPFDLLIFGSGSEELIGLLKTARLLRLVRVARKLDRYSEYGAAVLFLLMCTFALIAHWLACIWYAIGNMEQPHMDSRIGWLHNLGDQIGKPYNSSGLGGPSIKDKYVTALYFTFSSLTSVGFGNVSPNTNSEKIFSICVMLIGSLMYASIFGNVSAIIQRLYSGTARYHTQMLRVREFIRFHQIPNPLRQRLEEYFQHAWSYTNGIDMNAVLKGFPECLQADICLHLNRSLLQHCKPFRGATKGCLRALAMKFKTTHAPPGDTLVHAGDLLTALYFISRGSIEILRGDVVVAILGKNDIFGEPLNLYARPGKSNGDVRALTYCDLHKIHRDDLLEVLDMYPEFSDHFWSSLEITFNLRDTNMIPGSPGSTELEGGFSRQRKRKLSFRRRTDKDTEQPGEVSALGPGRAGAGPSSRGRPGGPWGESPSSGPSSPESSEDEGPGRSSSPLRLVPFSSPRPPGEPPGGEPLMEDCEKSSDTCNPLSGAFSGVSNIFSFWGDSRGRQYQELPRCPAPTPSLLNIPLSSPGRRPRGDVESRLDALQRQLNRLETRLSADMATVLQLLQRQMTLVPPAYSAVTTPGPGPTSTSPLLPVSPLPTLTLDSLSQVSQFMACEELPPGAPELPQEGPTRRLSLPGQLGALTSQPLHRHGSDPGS
# Chain of Steroidogenic factor 1 (Q13285 whole entry): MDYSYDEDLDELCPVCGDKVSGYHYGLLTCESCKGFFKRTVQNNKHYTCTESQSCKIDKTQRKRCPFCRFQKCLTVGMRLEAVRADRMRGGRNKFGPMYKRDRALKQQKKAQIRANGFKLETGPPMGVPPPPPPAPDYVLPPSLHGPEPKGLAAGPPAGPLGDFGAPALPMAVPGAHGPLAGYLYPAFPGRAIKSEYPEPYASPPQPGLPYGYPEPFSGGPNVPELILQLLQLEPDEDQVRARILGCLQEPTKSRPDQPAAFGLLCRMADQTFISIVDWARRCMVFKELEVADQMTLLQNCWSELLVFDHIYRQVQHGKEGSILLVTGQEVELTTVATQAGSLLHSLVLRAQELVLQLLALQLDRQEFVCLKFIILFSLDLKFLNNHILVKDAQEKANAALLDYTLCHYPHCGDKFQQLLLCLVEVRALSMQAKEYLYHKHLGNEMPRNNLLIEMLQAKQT
# Chain of Metabotropic glutamate receptor 5 (P31424 whole entry): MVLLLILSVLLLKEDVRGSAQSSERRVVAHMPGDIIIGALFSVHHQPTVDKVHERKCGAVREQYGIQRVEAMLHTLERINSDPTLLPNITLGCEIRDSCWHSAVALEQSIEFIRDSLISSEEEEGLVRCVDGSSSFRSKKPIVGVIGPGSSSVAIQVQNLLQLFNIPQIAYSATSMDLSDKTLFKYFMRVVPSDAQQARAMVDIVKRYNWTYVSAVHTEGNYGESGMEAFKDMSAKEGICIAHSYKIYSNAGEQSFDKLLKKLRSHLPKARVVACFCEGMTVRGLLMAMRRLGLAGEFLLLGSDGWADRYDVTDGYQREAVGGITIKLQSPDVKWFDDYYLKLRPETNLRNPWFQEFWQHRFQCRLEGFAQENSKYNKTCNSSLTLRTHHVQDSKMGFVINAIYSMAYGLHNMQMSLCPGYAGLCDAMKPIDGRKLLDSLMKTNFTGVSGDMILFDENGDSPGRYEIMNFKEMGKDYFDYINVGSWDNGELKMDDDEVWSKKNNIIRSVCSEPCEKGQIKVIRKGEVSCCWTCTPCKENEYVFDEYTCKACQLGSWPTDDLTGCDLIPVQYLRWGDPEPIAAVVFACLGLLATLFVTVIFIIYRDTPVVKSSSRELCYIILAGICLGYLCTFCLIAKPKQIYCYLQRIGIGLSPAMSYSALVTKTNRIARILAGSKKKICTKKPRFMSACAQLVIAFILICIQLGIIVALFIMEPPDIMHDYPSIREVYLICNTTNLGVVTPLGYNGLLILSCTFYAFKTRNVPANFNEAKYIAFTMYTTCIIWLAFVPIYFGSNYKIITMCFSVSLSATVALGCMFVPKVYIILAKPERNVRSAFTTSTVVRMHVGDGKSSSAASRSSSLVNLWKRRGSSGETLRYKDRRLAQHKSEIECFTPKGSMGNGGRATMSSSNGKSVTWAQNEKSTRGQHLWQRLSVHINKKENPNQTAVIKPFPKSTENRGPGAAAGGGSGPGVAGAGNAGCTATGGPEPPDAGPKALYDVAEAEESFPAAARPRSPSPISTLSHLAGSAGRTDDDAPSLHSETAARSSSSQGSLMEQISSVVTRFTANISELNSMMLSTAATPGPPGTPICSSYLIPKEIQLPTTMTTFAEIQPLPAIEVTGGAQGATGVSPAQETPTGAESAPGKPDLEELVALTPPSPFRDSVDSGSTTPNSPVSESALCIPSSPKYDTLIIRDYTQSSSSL
# Chain of Nuclear receptor subfamily 5 group A member 2 (O00482 whole entry): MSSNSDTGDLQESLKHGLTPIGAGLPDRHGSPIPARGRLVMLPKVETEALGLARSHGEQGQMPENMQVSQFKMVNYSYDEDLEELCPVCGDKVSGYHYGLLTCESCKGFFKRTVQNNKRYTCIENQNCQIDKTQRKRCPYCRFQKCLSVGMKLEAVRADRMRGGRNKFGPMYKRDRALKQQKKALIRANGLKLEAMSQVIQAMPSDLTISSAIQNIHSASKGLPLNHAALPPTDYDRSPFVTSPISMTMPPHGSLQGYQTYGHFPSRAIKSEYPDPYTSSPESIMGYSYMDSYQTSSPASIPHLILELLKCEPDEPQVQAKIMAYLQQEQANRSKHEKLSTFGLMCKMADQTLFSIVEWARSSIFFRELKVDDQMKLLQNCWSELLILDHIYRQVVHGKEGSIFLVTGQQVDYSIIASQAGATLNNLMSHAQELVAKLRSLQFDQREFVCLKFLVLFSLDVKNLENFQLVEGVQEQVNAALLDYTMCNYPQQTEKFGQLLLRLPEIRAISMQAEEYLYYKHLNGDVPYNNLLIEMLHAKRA
# Chain of Potassium channel subfamily K member 3 (O14649 whole entry): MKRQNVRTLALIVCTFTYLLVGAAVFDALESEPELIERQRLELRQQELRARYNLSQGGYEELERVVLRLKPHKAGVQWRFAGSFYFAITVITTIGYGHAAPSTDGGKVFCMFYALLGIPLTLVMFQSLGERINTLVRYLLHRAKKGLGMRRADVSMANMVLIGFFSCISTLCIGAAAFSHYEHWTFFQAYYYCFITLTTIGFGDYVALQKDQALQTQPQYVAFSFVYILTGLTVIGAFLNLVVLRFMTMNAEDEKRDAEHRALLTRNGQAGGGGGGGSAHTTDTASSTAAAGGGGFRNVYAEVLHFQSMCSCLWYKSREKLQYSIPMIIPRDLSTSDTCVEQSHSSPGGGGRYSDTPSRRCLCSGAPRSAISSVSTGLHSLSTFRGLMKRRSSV
structure (smiles),measurement,setting,value
FC(F)(F)Oc1ccccc1-c1nnc(SCc2ccccc2)o1,AC50,[1],> 52 µM (inactive)
CS(=O)(=O)N(CC(=O)N1CCc2ccccc21)c1ccccc1Cl,EC50,[2],10 µM (inconclusive)
Cc1ccc(C(=O)NNC(=S)NC(=O)c2ccco2)cc1,EC50,Streptococcus,8.89 µM (active)
same,EC50,[3],7.87 µM (active)
same,EC50,[4],1.87 µM (active)
same,IC50,[5],> 122 µM (inactive)
same,IC50,Vero [6],23.6 µM (active)
same,CC50,Vero [7],> 25 µM (active)
CC1CCN(S(=O)(=O)N2CCC(C(=O)NC3CCCC3)CC2)CC1,AC50,cells [8],> 52 µM (inactive)
same,EC50,[9],> 120 µM (not active)
same,EC50,[10],> 120 µM (not active)
same,EC50,H4,> 120 µM (not active)
same,AC50,cells [11],> 70 µM (inactive)
COC(=O)c1ccc(NC(=O)CSc2ccc(-c3ccccn3)nn2)cc1,IC50,[12],35.9 µM (inactive)
same,AC50,[13],115 µM (active)
same,IC50,Steroidogenic factor 1,35.9 µM (inactive)
same,IC50,[14],35.9 µM (inactive)
Cc1cccc(C(=O)Nc2cccc(NC(=O)c3ccc(C(C)(C)C)cc3)c2)c1,IC50,[15],0.184 µM (active)
same,IC50,[16],32.8 µM (active)
CCn1nc(C)c(CNC(=O)c2ccc(OC)c(OC3CCN(C(C)C)CC3)c2)c1C,IC50,[17],1.75 µM (active)
Cc1csc(SCC(=O)Nc2sccc2C#N)n1,EC50,[18],> 67.6 µM (inactive)
same,EC50,cells [19],> 67.6 µM (inactive)
Cc1noc(C)c1S(=O)(=O)Nc1ccc2c(c1)C(=O)N([C@H](C)CO)C[C@H](C)[C@H](CN(C)Cc1ccc3c(c1)OCO3)OCCCC[C@@H](C)O2,AC50,[20],15.7 µM (active)
COc1ccccc1NS(=O)(=O)c1cccc(NC(=O)Nc2ccccc2)c1,IC50,[21],1.27 µM (active)
same,IC50,[22],48.8 µM (inactive)
same,IC50,[23],0.644 µM (active)
same,IC50,[24],64.2 µM (inactive)
O=C(O)C1CCCCC1C(=O)N1CCc2ccccc2C1CN1Cc2ccccc2C1=O (stereo not drawn),AC50,[25],91.2 µM (active)
same,AC50,[26],39.1 µM (active)
CC(C)CNc1ccnc(NCc2csc(-c3ccccc3)n2)n1,AC50,[27],4.74 µM (active)
same,AC50,[28],5.54 µM (active)
C[C@@H]1CN([C@@H](C)CO)S(=O)(=O)c2ccc(C#CC3CC3)cc2O[C@H]1CN(C)CC1CCOCC1,AC50,[29],31.7 µM (active)
same,AC50,HEK293,31.7 µM (active)
same,AC50,HeLa,> 52 µM (inactive)
Oc1ccc(Cl)cc1CNc1cccc2cccnc12,EC50,Streptococcus,> 150 µM (not active)
same,EC50,Streptokinase A,> 150 µM (not active)
same,EC50,[4],23.9 µM (active)
same,AC50,Caspase-6,48.4 µM (active)

# Reference: ChEMBL document CHEMBL1201862, “PubChem BioAssay data set” (2004)
